Test results as given in US20110152313A1 (MACQUARIE UNIVERSITY, priority 2008, published 2011).

How the values were obtained:
Assay in all cases: kinase binding screen (kinase-tagged T7 phage, qPCR), % Ctrl
[1] = target: IRAK1 (Homo sapiens, UniProt P51617)
Method in brief: (§1)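 Steps: grow T7 phage displaying kinase in BL21-derived E. coli; clarify lysate; combine with ligand-liganded, blocked beads and compound (single concentration, diluted from 40× DMSO stock); elute; quantify kinase by qPCR.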

[2] = target: T1, MAP3K2 (Homo sapiens, UniProt Q9Y2U5)
T1 sequence (Q9Y2U5 1-619): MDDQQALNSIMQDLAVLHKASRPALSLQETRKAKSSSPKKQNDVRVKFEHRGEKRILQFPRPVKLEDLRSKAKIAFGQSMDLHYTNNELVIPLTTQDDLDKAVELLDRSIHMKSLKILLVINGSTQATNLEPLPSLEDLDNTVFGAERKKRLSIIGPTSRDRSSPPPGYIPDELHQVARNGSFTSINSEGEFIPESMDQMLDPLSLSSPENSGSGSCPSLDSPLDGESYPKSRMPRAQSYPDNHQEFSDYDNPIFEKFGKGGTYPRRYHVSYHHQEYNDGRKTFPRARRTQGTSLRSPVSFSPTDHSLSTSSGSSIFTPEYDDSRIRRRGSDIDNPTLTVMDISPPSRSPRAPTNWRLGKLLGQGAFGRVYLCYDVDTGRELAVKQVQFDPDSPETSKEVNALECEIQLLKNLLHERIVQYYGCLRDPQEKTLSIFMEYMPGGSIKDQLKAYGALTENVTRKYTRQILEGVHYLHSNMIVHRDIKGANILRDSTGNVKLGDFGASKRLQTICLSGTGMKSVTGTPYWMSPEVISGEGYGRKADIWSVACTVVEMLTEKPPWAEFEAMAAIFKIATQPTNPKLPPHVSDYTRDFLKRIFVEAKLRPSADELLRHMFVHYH
Method in brief: as §1

[3] = target: RPS6KA1(Kin.Dom.2-C-terminal) (Homo sapiens, UniProt Q15418)
Sequence of RPS6KA1(Kin.Dom.2-C-terminal) (Q15418 418-675 limits assumed, species assumed): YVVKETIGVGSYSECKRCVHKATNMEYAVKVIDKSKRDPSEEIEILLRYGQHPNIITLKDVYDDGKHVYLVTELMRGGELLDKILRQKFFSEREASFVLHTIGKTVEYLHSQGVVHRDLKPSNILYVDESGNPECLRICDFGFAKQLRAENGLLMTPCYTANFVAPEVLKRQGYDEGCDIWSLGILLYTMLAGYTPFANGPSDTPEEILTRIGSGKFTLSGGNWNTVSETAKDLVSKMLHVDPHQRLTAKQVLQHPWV
Method in brief: as §1

[4] = target: T2, GRK1 (Homo sapiens, UniProt Q15835)
T2 sequence (Q15835 1-563): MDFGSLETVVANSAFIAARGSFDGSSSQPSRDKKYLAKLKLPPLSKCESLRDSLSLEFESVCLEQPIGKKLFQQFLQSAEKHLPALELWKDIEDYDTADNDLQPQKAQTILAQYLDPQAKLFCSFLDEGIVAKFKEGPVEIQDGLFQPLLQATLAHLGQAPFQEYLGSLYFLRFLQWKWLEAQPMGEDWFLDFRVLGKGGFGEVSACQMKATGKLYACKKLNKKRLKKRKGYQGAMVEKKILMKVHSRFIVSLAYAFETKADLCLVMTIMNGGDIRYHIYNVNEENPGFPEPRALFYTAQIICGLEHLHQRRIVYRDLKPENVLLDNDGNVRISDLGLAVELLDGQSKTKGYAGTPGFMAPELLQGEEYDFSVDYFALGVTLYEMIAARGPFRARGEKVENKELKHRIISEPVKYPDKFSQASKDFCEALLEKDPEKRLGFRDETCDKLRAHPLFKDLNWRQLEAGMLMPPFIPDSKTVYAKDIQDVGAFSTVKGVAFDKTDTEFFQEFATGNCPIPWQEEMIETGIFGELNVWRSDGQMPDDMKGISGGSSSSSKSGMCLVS
Method in brief: as §1

[5] = target: CAMKK1 (Homo sapiens, UniProt Q8N5S9)
Sequence of CAMKK1 (Q8N5S9 whole entry): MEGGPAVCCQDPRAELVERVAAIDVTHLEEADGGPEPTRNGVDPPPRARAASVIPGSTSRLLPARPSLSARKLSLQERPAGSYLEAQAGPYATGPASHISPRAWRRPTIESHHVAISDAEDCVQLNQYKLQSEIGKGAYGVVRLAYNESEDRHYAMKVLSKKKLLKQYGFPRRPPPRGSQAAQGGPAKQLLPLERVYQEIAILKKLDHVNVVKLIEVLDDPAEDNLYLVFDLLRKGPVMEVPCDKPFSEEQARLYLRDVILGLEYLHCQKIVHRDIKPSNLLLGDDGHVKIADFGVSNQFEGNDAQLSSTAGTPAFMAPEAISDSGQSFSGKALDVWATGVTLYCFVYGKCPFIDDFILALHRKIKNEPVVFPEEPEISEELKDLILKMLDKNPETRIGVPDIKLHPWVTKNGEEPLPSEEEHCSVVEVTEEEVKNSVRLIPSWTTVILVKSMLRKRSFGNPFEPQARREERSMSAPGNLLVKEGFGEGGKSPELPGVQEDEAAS
Method in brief: as §1

[6] = target: ROCK2 (Homo sapiens, UniProt O75116)
Sequence of ROCK2 (O75116 whole entry, species assumed): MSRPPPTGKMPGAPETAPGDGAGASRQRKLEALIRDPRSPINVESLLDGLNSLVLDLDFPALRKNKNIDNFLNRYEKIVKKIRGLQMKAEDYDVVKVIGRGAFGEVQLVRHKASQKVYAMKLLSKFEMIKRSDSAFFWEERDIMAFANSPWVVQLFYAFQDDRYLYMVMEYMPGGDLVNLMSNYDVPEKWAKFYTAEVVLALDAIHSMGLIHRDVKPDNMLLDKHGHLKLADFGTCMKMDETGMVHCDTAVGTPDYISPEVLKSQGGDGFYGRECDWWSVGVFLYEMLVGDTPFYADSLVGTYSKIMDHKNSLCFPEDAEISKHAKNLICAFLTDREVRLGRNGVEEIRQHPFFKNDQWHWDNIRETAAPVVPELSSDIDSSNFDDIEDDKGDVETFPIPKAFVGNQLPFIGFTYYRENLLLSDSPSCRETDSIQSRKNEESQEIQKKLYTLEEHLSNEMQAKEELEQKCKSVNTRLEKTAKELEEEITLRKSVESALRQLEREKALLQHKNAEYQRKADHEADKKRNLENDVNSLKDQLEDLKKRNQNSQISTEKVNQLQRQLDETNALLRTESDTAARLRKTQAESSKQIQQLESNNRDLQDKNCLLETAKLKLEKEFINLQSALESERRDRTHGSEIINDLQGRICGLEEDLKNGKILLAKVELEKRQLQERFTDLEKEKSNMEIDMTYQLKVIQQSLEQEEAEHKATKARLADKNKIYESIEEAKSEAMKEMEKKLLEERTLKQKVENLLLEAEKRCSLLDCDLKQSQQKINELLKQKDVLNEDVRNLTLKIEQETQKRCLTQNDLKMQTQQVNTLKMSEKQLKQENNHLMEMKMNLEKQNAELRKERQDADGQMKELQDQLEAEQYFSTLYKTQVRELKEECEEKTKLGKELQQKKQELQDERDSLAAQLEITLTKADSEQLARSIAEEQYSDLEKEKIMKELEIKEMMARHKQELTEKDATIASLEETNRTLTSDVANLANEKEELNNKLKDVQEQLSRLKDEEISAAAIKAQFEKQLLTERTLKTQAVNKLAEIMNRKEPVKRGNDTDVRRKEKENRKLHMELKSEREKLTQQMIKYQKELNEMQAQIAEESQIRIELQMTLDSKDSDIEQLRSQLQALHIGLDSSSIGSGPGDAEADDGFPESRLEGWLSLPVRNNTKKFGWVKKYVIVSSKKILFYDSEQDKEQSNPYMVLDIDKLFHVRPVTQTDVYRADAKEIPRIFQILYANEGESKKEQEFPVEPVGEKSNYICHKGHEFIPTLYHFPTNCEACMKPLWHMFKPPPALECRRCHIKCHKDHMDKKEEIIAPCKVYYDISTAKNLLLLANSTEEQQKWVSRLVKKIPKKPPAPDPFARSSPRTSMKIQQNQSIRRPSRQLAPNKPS
Method in brief: as §1

[7] = target: SBK1 (Homo sapiens, UniProt Q52WX2)
Sequence of SBK1 (Q52WX2 whole entry): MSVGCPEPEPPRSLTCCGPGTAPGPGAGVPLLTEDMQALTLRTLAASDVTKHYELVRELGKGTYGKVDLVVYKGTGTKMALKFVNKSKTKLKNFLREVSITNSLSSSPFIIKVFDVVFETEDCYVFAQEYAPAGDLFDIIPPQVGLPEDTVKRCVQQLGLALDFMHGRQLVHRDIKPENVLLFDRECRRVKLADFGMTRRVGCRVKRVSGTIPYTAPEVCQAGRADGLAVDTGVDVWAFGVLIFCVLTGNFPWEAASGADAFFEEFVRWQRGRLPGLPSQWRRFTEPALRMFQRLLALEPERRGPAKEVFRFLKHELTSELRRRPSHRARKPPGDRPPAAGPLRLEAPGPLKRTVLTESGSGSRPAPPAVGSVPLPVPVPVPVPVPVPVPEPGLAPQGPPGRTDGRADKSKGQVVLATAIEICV
Method in brief: as §1

[8] = target: YANK2 (Homo sapiens, UniProt Q9NY57)
Sequence of YANK2 (Q9NY57 whole entry): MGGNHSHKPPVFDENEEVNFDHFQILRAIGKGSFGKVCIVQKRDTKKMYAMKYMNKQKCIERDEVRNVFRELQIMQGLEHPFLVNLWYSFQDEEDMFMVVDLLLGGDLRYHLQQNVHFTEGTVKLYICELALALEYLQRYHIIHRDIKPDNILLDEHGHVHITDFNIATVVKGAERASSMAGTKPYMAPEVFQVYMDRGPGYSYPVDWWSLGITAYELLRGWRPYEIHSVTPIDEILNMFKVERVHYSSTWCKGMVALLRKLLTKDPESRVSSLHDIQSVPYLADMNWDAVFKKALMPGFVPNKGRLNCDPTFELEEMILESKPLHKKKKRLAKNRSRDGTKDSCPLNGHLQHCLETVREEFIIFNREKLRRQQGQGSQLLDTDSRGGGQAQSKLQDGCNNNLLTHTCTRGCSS
Method in brief: as §1

[9] = target: CLK4 (Homo sapiens, UniProt Q9HAZ1)
Sequence of CLK4 (Q9HAZ1 whole entry, species assumed): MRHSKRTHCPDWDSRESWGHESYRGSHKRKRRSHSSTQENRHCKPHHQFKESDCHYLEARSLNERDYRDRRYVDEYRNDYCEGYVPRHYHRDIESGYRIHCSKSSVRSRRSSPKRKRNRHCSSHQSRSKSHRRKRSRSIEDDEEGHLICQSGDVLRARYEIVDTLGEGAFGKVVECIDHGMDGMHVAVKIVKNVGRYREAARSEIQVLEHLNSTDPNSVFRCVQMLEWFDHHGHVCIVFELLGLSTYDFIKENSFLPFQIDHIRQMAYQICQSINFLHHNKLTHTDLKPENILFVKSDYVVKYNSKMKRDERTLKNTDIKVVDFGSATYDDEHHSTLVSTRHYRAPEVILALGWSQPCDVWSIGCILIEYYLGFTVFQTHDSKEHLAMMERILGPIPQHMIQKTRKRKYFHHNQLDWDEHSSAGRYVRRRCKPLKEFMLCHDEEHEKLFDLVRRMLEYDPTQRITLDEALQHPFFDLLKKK
Method in brief: as §1

[10] = target: PIK4CB (Homo sapiens, UniProt Q9UBF8)
Sequence of PIK4CB (Q9UBF8 whole entry, species assumed): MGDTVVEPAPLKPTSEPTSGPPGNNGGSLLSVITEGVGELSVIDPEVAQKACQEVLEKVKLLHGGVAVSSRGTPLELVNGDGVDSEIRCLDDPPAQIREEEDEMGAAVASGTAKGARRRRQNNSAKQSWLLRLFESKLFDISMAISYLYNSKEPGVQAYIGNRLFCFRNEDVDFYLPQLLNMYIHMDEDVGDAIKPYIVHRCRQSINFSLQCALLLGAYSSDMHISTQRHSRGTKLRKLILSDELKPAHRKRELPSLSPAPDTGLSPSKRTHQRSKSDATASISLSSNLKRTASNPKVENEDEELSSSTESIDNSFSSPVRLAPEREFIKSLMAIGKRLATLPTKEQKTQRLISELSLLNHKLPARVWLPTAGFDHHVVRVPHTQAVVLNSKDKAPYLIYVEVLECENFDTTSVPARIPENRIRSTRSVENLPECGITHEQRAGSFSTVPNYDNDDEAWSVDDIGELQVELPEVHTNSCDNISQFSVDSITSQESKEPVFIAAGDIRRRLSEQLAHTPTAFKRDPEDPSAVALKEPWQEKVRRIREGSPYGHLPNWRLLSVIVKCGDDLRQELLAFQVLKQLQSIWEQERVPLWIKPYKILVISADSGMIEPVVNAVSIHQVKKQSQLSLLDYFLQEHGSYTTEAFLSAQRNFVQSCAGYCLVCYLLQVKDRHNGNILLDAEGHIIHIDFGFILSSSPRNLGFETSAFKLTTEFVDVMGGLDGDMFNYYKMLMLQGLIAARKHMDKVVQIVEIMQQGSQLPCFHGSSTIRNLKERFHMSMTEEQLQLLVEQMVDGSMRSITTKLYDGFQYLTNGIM
Method in brief: as §1

[11] = target: T3, PRKCE (Homo sapiens, UniProt Q02156)
T3 sequence (Q02156 1-737): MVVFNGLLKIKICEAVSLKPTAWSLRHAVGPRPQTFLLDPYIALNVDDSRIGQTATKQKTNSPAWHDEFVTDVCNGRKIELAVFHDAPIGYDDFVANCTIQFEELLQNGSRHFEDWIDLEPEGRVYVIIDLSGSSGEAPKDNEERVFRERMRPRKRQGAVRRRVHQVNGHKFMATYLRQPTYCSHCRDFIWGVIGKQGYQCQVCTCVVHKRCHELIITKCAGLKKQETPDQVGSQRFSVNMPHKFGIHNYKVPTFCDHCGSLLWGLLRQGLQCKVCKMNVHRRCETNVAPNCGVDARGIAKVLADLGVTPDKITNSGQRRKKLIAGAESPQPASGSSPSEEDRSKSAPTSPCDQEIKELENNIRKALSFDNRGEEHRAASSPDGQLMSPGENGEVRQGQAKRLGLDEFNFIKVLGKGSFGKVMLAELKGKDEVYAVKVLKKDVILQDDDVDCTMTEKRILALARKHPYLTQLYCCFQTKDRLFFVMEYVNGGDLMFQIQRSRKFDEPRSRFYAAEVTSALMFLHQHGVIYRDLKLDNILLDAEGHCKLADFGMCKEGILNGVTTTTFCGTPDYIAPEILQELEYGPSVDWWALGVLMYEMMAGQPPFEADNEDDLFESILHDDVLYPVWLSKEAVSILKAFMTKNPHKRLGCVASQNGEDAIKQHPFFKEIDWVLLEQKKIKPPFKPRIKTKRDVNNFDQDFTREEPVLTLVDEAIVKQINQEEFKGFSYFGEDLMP
Method in brief: as §1

Sequence of IRAK1 (P51617 whole entry, species assumed): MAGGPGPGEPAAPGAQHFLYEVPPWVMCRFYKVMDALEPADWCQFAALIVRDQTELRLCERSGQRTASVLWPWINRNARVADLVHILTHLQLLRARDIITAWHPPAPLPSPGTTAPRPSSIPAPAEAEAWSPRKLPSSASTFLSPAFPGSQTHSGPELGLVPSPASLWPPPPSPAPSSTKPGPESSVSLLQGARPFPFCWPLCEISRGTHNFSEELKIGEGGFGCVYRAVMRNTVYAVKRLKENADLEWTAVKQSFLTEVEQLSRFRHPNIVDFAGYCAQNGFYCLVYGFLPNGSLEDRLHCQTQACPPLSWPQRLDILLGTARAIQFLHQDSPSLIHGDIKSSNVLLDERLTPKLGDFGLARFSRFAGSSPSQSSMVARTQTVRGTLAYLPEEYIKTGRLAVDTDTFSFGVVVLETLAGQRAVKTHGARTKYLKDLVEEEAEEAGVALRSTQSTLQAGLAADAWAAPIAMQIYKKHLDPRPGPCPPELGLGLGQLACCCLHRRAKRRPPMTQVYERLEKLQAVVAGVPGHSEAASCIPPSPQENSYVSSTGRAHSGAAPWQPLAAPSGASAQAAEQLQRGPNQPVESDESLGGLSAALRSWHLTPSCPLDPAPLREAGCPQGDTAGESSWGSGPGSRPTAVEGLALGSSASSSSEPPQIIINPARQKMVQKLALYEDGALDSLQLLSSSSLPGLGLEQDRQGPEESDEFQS

## Nc1nc2c(-c3cnc4ccccc4c3)nccc2[nH]1 [drawing 36, 4-(quinolin-3-yl)-1H-imidazo[4,5-c]pyridin-2-amine]
[1]
  remaining activity at 1 µM: 89%
[2]
  remaining activity at 1 µM: 81%
[3]
  remaining activity at 1 µM: 92%
[4]
  remaining activity at 1 µM: 86%
[5]
  remaining activity at 1 µM: 100%
[6]
  remaining activity at 1 µM: 100%
[7]
  remaining activity at 1 µM: 100%
[8]
  remaining activity at 1 µM: 50%
[9]
  remaining activity at 1 µM: 65%
[10]
  remaining activity at 1 µM: 37%
[11]
  remaining activity at 1 µM: 100%

## Nc1nc2c(-c3ccccn3)nccc2[nH]1 [drawing 35, 4-(pyrid-2-yl)-1H-imidazo[4,5-c]pyridin-2-amine]
[1]
  remaining activity at 1 µM: 52%
[2]
  remaining activity at 1 µM: 54%
[3]
  remaining activity at 1 µM: 33%
[4]
  remaining activity at 1 µM: 49%
[5]
  remaining activity at 1 µM: 19%
[6]
  remaining activity at 1 µM: 45%
[7]
  remaining activity at 1 µM: 53%
[8]
  remaining activity at 1 µM: 89%
[9]
  remaining activity at 1 µM: 60%
[10]
  remaining activity at 1 µM: 88%
[11]
  remaining activity at 1 µM: 20%

## Nc1nc2c(-c3cc(Br)c(Br)[nH]3)nccc2[nH]1 [Ageladine A, ageladine A, reference compound]
[1]
  remaining activity at 1 µM: 55%
[1]; 10 μM
  remaining activity at 10 µM: 35%
[2]
  remaining activity at 1 µM: 73%
[2]; 10 μM
  remaining activity at 10 µM: 70%
[3]
  remaining activity at 1 µM: 20%
[3]; 10 μM
  remaining activity at 10 µM: 22%
[4]
  remaining activity at 1 µM: 80%
[4]; 10 μM
  remaining activity at 10 µM: 85%
[5]
  remaining activity at 1 µM: 92%
[5]; 10 μM
  remaining activity at 10 µM: 100%
[6]
  remaining activity at 1 µM: 65%
[6]; 10 μM
  remaining activity at 10 µM: 38%
[7]
  remaining activity at 1 µM: 87%
[7]; 10 μM
  remaining activity at 10 µM: 77%
[8]
  remaining activity at 1 µM: 93%
[8]; 10 μM
  remaining activity at 10 µM: 87%
[9]
  remaining activity at 1 µM: 51%
[9]; 10 μM
  remaining activity at 10 µM: 11%
[10]
  remaining activity at 1 µM: 66%
[10]; 10 μM
  remaining activity at 10 µM: 50%
[11]
  remaining activity at 1 µM: 54%
[11]; 10 μM
  remaining activity at 10 µM: 100%
